# Assay results taken from US12162867B2, “Inhibitors of RNA helicase DHX9 and uses thereof” (ACCENT THERAPEUTICS, INC., priority 2022, dated 2024).
# pEC50, pIC50: −log10 of the molar value. Like-named read-outs stand apart in the source and are kept apart here.
# Assays:
# Assay type in all cases: cell-based
# LS411N cells = test: DHX9 cellular proliferation assay (CellTiter-Glo), LS411N (CRC-MSI); conditions: Homo sapiens, LS-411N, LS411N, performed at Pharmaron, read-out: LS411N (CRC-MSI-H) Antiproliferative IC50
# NCI-H747 cells = test: DHX9 cellular proliferation assay (CellTiter-Glo), NCI-H747 (CRC-MSS); conditions: Homo sapiens, performed at Pharmaron, read-out: H747 (CRC-MSS) Antiproliferative IC50
# [1] = tested on: circBRIP1 in HCT116 cells; test: DHX9 circBRIP1 cellular target engagement SYBR Green assay (qPCR); conditions: Homo sapiens, HCT-116, circBRIP1, HCT116 cells, read-out: DHX9 Cellular Target Engagement EC50
SMILES,"pIC50 (NCI-H747 cells; NCI-H747, NCI-H747)",pEC50 ([1]; ^+ SyBr assay was used),"pIC50 (NCI-H747 cells; NCI-H747, NCI-H747, CRC-MSS)",pEC50 ([1]; SyBr assay (marked ^+)),pIC50 (LS411N cells),pIC50 (LS411N cells; CRC-MSI-H)
CC1CN(c2ccc(-n3cc(C(=O)Nc4cc(Cl)cc(NS(C)(=O)=O)c4)cn3)nc2)CCO1 (stereo not drawn) [Example 92],,,< 5.00,6.55,,5.96
"Cc1cccnc1-c1cc(C(=O)Nc2cc(Cl)cc(NS(C)(=O)=O)c2)cn1CC(F)F [Example 143, N-(3-chloro-5-(methylsulfonamido)phenyl)-1-(2,2-difluoroethyl)-5-(3-methylpyridin-2-yl)-1H-pyrrole-3-carboxamide]",,,5.07,6.29,,5.96
CS(=O)(=O)Nc1cc(Cl)cc(NC(=O)c2cc(-c3ncccc3OCc3ccccc3)cs2)c1 [Example 29],,,5.03,7.28,,6.91
CS(=O)(=O)Nc1cc(Cl)cc(NC(=O)c2cc(-c3ncccc3Nc3ncccn3)cs2)c1 [Example 237],,,5.42,5.72,,6.60
Cc1cccnc1-c1cc(C(=O)Nc2cc(Cl)cc(NS(C)(=O)=O)c2)cn1C [Example 81],,,< 5.00,6.54,,5.97
CCOc1cnc(-c2cc(C(=O)Nc3cc(Cl)cc(NS(C)(=O)=O)c3)cn2C)nc1 [Example 172],,,5.16,6.87,,6.63
Cc1sc(C(=O)Nc2cc(Cl)cc(NS(C)(=O)=O)c2)cc1-c1ncccn1 [Example 22],,,< 5.00,7.45,,6.94
CS(=O)(=O)Nc1cc(Cl)cc(NC(=O)c2cc(-c3ncc(F)cc3OCc3cncc(F)c3)cs2)c1 [Example 225],,,< 5.00,7.70,,7.36
CS(=O)(=O)Nc1cc(Cl)cc(NC(=O)c2cc(-c3ncccc3OCc3cccnc3)cs2)c1 [Example 217],,,< 5.00,7.87,,7.27
Cc1cccnc1-c1csc(C(=O)Nc2cc(Br)cc(NS(C)(=O)=O)c2)c1 [Example 33],,,< 5.00,7.67,,6.94
CS(=O)(=O)Nc1cc(Cl)cc(NC(=O)c2cc(-c3ccccc3OCc3ccccc3)cs2)c1 [Example 111],,,< 5.00,6.79,,6.50
CS(=O)(=O)Nc1cc(Br)cc(NC(=O)c2cnn(-c3ccc(N4CCOCC4)cn3)c2)c1 [Example 55],,,< 5.00,6.84,,5.97
CCS(=O)(=O)Nc1cc(Cl)cc(NC(=O)c2cc(-c3ncccc3C)cs2)c1 [Example 224],,,< 5.00,7.25,,6.91
COc1cc2cc(C(=O)Nc3cc(Cl)cc(NS(C)(=O)=O)c3)sc2cc1OC [Example 291],,,< 5.00,6.10,,6.45
"CS(=O)(=O)Nc1cc(Cl)cc(NC(=O)c2cc(-c3ccccn3)c(C3CC3)s2)c1 [Example 177, N-(3-chloro-5-(methylsulfonamido)phenyl)-5-cyclopropyl-4-(pyridin-2-yl)thiophene-2-carboxamide]",,,< 5.00,7.07,,6.60
CS(=O)(=O)Nc1cc(Cl)cc(NC(=O)c2cc(-c3ncccc3COc3cc(F)cc(F)c3)cs2)c1 [Example 228],,,< 5.00,7.32,,6.93
Cc1sc(C(=O)Nc2cc(Br)cc(NS(C)(=O)=O)c2)cc1-c1ccccc1O [Example 20],,,5.14,7.00,,6.22
Cc1sc(C(=O)Nc2cc(Cl)cc(NS(C)(=O)=O)c2)cc1-c1ccc(F)cn1 [Example 35],,,< 5.00,7.43,,7.11
CS(=O)(=O)Nc1cc(Cl)cc(NC(=O)c2cnn(-c3ncc(F)cc3CCc3cccc(F)c3)c2)c1 [Example 251],,,< 5.00,< 5.00,,6.36
Cc1cc(C(=O)Nc2cc(Cl)cc(NS(C)(=O)=O)c2)cn1-c1ccc(N2CCN(C)C(=O)C2)cn1 [Example 94],,,< 5.00,6.53,,5.49
CCS(=O)(=O)Nc1cc(Cl)cc(NC(=O)c2cc(-c3ncccn3)c(C)s2)c1 [Example 27],,,< 5.00,7.30,,6.93
Cc1cccnc1-n1cc(C(=O)Nc2cc(Br)cc(NS(C)(=O)=O)c2)cn1 [Example 49],,,< 5.00,6.36,,6.05
CS(=O)(=O)Nc1cc(Cl)cc(NC(=O)c2cnn(-c3ccccc3OCc3cccc(F)c3)c2)c1 [Example 210],,,< 5.00,7.11,,6.95
"CS(=O)(=O)Nc1cc(Cl)cc(NC(=O)c2cc(-c3ccccc3)c(CO)s2)c1 [Example 120, N-(3-chloro-5-(methylsulfonamido)phenyl)-5-(hydroxymethyl)-4-phenylthiophene-2-carboxamide]",,,5.16,6.84,,5.97
CN(C)C(=O)c1sc(C(=O)Nc2cc(Cl)cc(NS(C)(=O)=O)c2)cc1-c1ncccc1OCc1ccccc1 [Example 213],,,< 5.00,7.13,,6.76
Cc1cc(C(=O)Nc2cc(Cl)cc(NS(C)(=O)=O)c2)cn1-c1ncccc1O [Example 281],,,5.13,6.32,,6.44
CS(=O)(=O)Nc1cc(F)cc(NC(=O)c2cc(-c3ncccc3OCc3ccccc3)cs2)c1 [Example 214],,,5.15,6.97,,6.69
CC(O)c1cc(C(=O)Nc2cc(Cl)cc(NS(C)(=O)=O)c2)cn1-c1ccccn1 (stereo not drawn) [Example 287],,,< 5.00,6.63,,6.78
"Cn1cc(C(=O)Nc2cc(Cl)cc(NS(C)(=O)=O)c2)cc1-c1ncccc1OCc1cncc(F)c1 [Example 174, N-(3-chloro-5-(methylsulfonamido)phenyl)-5-(3-((5-fluoropyridin-3-yl)methoxy)pyridin-2-yl)-1-methyl-1H-pyrrole-3-carboxamide]",,,< 5.00,8.15,,7.48

# More lines, main results first:
"pIC50 (NCI-H747 cells; NCI-H747, NCI-H747)",pEC50 ([1]; ^+ SyBr assay was used),"pIC50 (NCI-H747 cells; NCI-H747, NCI-H747, CRC-MSS)",pEC50 ([1]; SyBr assay (marked ^+)),SMILES,pIC50 (LS411N cells),pIC50 (LS411N cells; CRC-MSI-H)
5.45,7.21,,,Cn1cc(C(=O)Nc2cc(Cl)cc(NS(C)(=O)=O)c2)cc1-c1ncc(C(F)(F)F)cn1 [Example 571],6.80,
5.36,7.02,,,Cc1cc(C(=O)Nc2cc(Cl)cc(NS(C)(=O)=O)c2)cn1-c1ccc(C(F)(F)F)cn1 [Example 443],6.45,
< 5.00,7.45,,,Cn1cc(C(=O)Nc2cc(Cl)cc(NS(C)(=O)=O)c2)cc1-c1ncc(N2CCC2)cn1 [Example 521],7.16,
< 5.00,6.95,,,CN1C(=O)N(c2csc(C(=O)Nc3cc(Cl)cc(NS(C)(=O)=O)c3)c2)C(=O)C1(C)C [Example 432],6.85,
,,5.09,6.96,Cc1cc(C(=O)Nc2cc(Cl)cc(NS(C)(=O)=O)c2)cn1-c1ccc(Cl)cn1 [Example 389],,6.95
,,< 5.00,7.29,CCOc1cnc(-c2cc(C(=O)Nc3cc(Cl)cc(NS(C)(=O)=O)c3)sc2C)nc1 [Example 335],,7.28
,,5.07,6.97,Cc1sc(C(=O)Nc2cc(Cl)cc(NS(C)(=O)=O)c2)cc1-c1ncc(OC(F)F)cn1 [Example 345],,6.44
5.16,7.58,,,Cc1cc(C(=O)Nc2cc(Cl)cc(NS(C)(=O)=O)c2)cn1-c1ccc(N2CCC2)cn1 [Example 397],7.33,
< 5.00,6.98,,,Cc1cc(C(=O)Nc2cc(Cl)cc(NS(C)(=O)=O)c2)cn1-c1ncccc1OCC1CC1 [Example 713],6.98,
,,< 5.00,6.78,Cc1cc(C(=O)Nc2cc(Cl)cc(NS(C)(=O)=O)c2)cn1-c1ccc(F)cn1 [Example 390],,7.20
5.05,7.46,,,Cc1cc(C(=O)Nc2cc(Cl)cc(NS(C)(=O)=O)c2)cn1-c1ccc(N2CC(F)(F)C2)cn1 [Example 399],7.02,
< 5.00,7.33,,,CCOc1ccc(-n2cc(C(=O)Nc3cc(Cl)cc(NS(C)(=O)=O)c3)cc2C)nc1 [Example 437],6.91,
< 5.00,7.29,,,CS(=O)(=O)Nc1cc(Cl)cc(NC(=O)c2cnn(-c3ccc(N4CC5(COC5)C4)cc3OCc3cccc(F)c3)c2)c1 [Example 722],7.30,
< 5.00,7.38,,,Cn1cc(C(=O)Nc2cc(Cl)cc(NS(C)(=O)=O)c2)cc1-c1ncccc1OCC1CC1 [Example 584],6.91,
< 5.00,7.56,,,COCc1ccc(-n2cc(C(=O)Nc3cc(Cl)cc(NS(C)(=O)=O)c3)cc2C)nc1 [Example 447],6.96,
< 5.00,7.26,,,CCOc1ccc(-c2cc(C(=O)Nc3cc(Cl)cc(NS(C)(=O)=O)c3)cn2C)nc1 [Example 572],6.84,
< 5.00,7.04,,,CCOc1cnn(-c2cc(C(=O)Nc3cc(Cl)cc(NS(C)(=O)=O)c3)sc2C)c1 [Example 438],6.29,
5.44,7.24,,,Cn1cc(C(=O)Nc2cc(Cl)cc(NS(C)(=O)=O)c2)cc1-c1ccc(N2CCC2)cn1 [Example 538],6.91,
< 5.00,7.13,,,Cc1cc(C(=O)Nc2cc(Cl)cc(NS(C)(=O)=O)c2)cn1-c1ccc(N2CC3CC3C2)cn1 (stereo not drawn) [Example 411],6.85,
< 5.00,7.39,,,Cc1cc(C(=O)Nc2cc(Cl)cc(NS(C)(=O)=O)c2)cn1-c1ncc(N2CCC2)cn1 [Example 398],6.94,
